The subject of one experiment is COX-1. Conditions: read-out: IC50, COX-1; cited from earlier work.
Experiment [1] concerns the target T1, 5-LOX (Homo sapiens, UniProt P09917).
T1 sequence (P09917 1-674): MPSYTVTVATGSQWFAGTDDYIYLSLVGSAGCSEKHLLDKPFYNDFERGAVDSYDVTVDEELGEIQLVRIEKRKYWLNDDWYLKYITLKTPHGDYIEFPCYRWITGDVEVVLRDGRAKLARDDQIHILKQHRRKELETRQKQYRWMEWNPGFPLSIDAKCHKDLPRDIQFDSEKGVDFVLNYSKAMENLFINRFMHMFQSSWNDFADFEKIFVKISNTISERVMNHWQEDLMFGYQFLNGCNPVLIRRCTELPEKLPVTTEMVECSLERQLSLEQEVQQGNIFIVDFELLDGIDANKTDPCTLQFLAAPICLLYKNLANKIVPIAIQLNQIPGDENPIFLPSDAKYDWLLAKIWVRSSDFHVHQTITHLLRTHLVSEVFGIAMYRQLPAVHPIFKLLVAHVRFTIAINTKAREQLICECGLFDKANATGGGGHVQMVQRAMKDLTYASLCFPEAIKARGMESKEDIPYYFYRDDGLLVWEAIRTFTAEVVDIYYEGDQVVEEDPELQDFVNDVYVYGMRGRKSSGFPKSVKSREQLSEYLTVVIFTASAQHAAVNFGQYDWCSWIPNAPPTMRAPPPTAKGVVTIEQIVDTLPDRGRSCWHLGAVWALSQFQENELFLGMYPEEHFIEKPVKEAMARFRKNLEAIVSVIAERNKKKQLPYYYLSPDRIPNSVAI
The experiment can be described thus: 5-LOX product formation in activated PMNL. The note with it: for IC50: read-out: IC50, 5-LOX product formation, activated PMNL, A23187 plus arachidonic acid. It counts as cell-based.

Experiment [2] concerns the target T1, 5-LOX. The experiment can be described thus: cell-free 5-LOX activity. It counts as biochemical. The note with it: for IC50: read-out: IC50, human recombinant 5-LOX, arachidonic acid 20 μmol/L.
The test system of experiment [3] is 5-LOX. Conditions: cited from earlier work; for IC50: read-out: IC50, 5-LOX.
Experiment [4] relates to human neutrophils or macrophages. Conditions: cited from earlier work.
For the next experiment, the target named is T2, 12-LOX (Homo sapiens, UniProt P18054).
T2 sequence (P18054 1-663): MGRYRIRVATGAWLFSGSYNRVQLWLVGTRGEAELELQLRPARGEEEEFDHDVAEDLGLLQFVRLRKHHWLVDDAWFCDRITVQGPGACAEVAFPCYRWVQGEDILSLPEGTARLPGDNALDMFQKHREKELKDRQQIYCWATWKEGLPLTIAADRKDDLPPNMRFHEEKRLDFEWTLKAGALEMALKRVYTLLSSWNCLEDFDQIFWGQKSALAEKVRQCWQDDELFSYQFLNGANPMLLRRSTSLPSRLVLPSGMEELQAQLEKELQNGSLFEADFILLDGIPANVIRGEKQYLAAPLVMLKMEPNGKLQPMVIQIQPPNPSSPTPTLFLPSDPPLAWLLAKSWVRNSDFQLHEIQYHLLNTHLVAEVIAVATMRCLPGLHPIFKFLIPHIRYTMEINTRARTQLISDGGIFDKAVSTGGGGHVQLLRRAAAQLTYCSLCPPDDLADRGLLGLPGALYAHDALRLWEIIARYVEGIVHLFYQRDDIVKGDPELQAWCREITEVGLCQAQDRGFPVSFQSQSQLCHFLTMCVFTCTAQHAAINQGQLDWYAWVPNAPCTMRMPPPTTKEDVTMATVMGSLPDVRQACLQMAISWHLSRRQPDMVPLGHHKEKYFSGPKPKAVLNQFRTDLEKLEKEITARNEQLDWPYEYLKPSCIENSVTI
The note with it: 10 μmol/L; human neutrophils; cited from earlier work.

Another experiment relates to 15-LOX. The note with it: 10 μmol/L; human neutrophils; cited from earlier work.

This is an account of results in PMC8245855 (Acta Pharmaceutica Sinica. B, 2021).

Read-outs that look alike come from different tables or passages of the source.

In the case of `COc1ccc2c(c1)c(CC(=O)O)c(C)n2C(=O)c1ccc(Cl)cc1` [indomethacin], the 50% inhibitory concentration (IC50) (as a rule, the point on the concentration scale where inhibition reaches its midpoint) in the experiment with COX-1 was […].

Consider `COc1ccc(C(CCc2ccc(O)cc2OC)c2cc3c(c(C)c2O)OC(c2ccc(O)cc2)CC3)cc1` (centres unmarked) [Compound 3], for which the figures for the IC50 on 5-LOX [1] and on 5-LOX [2] were 800 ± 140 nM and 300 ± 70 nM, respectively.

As for `COc1cc(O)ccc1CCC(c1ccc(O)cc1)c1c(O)c(C)c2c(c1O)C(=O)CC(c1ccc(O)cc1)O2` (centres unmarked) [Compound 4], the IC50 was 460 ± 120 nM at 5-LOX [1] and 900 ± 260 nM at 5-LOX [2].

Turning to `CC(c1cc2ccccc2s1)N(O)C(N)=O` (centres unmarked) [Zileuton, zileuton], the inhibition – broadly, the percentage by which the read-out fell short of the control – at 3 µM at 5-LOX [1] (PMNL, read-out: inhibition of biosynthesis of 5-LOX metabolites, PMNL) was 64.1 ± 6.3%. Also, the “suppression of 5-LOX product formation, cell-free” value on 5-LOX [2] (3 μmol/L) was 70.7 ± 2.7%.

For the compound ginkgolic acid, the IC50 in the experiment with 5-LOX [3] is 200 nM. Moreover, the SPM formation in experiment [4] (10 μmol/L) is recorded as 110%–240%.

As to `Cc1cc(C(C)(C)C)c(O)c(C)c1CC1=NCCN1` [oxymetazoline], the “5-LOX product formation” value in the experiment with 5-LOX [3] (1000 μmol/L) is “failed to inhibit”. In addition, the SPM formation in experiment [4] (400 μmol/L) is reported as 130%.

Turning to “3-O-acetyl-11-keto-β-boswellic acid [AKBA]”, at 12-LOX, the “formation of 12-LOX metabolites” value is 270%. Further, in the experiment with 5-LOX [3], the 50% inhibitory concentration (IC50) is 3000 nM. Further, in the experiment with 15-LOX, the “formation of 15-LOX metabolites” value was 210%.
